One series concerns the target T1, human topoisomerase I (Homo sapiens, UniProt P11387).
T1 construct: unnamed fusion partner (recombinant fusion protein, T7 expression system); made in house; host or cells: E. coli
T1 sequence (P11387 1-765): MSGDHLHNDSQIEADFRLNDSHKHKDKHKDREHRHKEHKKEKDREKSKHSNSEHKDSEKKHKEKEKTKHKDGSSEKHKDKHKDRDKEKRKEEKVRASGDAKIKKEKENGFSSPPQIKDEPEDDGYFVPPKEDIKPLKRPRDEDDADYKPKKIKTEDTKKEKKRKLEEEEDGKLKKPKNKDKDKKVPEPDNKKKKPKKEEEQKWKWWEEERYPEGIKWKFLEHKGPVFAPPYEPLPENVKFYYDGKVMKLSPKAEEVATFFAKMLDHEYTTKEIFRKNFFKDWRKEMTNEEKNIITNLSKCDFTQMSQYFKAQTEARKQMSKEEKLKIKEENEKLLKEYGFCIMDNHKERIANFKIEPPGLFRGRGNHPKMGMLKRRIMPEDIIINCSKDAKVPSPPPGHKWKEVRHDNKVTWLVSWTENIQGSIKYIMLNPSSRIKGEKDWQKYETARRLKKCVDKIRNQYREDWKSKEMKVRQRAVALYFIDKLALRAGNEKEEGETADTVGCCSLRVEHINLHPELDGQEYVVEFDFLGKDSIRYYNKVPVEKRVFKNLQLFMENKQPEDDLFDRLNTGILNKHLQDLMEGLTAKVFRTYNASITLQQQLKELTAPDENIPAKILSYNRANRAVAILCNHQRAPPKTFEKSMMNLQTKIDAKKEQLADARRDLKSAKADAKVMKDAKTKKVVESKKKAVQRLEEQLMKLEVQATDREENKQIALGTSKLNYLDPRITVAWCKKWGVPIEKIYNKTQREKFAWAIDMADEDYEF
Nature of the series: Test A: topoisomerase I-mediated DNA cleavage assay. It counts as biochemical. The note with it: relative effective concentration, relative to topotecan = 1, producing the same cleavage of plasmid DNA in presence of human TOP1. The source says:
Test A. Topoisomerase-Mediated DNA Cleavage Assays
Human topoisomerase I was expressed in E. Coli and isolated as a recombinant fusion protein using a T7 expression system as described by Gatto, B., et al., Cancer Res. 1996, 56, 2795–2800. Plasmid YepG was purified by the alkali lysis method followed by phenol deproteination and CsCl/ethidium isopycnic centrifugation method as described by Maniatis, T., et al., J. Molecular Cloning, a Laboratory Manual; Cold Spring Harbor Laboratory: Cold Spring Harbor, N.Y. 1982; pp 149–185. The end-labeling of the plasmid was accomplished by digestion with a restriction enzyme followed by end-filling with Klenow polymerase as previously described by Tewey, K. M., et al., Science 1984, 226, 466–468. The cleavage assays were performed as previously reported (see Gatto, B., et al., Cancer Res. 1996, 56, 2795–2800; and Wang, H., et al., Biochemistry 2001, 40; 3316–3323). The drug and the DNA in presence of topoisomerase I was incubated for 30 minutes at 37° C. The reactions were terminated by the addition of 5 μl of 5% SDS and 1 mg/ml […] with an additional 1 hour of incubation at 37° C. Samples were then alkali denatured by the addition of NaOH, EDTA, sucrose, and bromophenol blue to final concentrations of 75 mM, 2.5%, and 0.05 mg/ml, respectively, prior to loading onto a neutral agarose gel. After development of the gels, typically 24-hour exposure was used to obtain autoradiograms outlining the extent of DNA fragmentation.

The test system of a further series is RPMI8402 cells. Nature of the series: Test B: MTT-microtiter plate tetrazolinium cytotoxicity assay, RPMI8402. The class given is cell-based, human. Particulars: RPMI 8402, 96 h, read-out: Cytotoxicity (IC50; μM) RPMI8402. As to the method: (§1) The cytotoxicity was determined using the MTT-microtiter plate tetrazolinium cytotoxicity assay (MTA—See Mosmann, T., J. Immunol. Methods 1983, 65, 55–63; Carmichael, J., et al., Cancer Res. 1987, 47, 936–942; and Denizot, F., et al., J. Immunol. Methods 1986, 89, 271–277). […] The cytotoxicity assay was performed using 96-well microtiter plates. Cells were grown in suspension at 37° C. in 5% CO2 and maintained by regular passage in RPMI medium supplemented with 10% heat- inactivated fetal bovine serum, L-glutamine (2 mM), penicillin (100 U/mL), and streptomycin (0.1 mg/mL). […] For determination of IC50, cells were exposed continuously for 4 days to varying concentrations of drug, and MTT assays were performed at the end of the fourth day. […] All assays were performed at least twice in 6 replicate wells.

The next series concerns CPT-K5 cells. Nature of the series: Test B: MTT-microtiter plate tetrazolinium cytotoxicity assay, CPT-K5. The class given is cell-based. The note with it: Homo sapiens, CPT-K5, 96 h, read-out: Cytotoxicity (IC50; μM) CPT-K5. As for the experimental part:
as §1

Where two headings read alike, the source gives them in different places.

Consider `CC[C@@]1(O)C(=O)OCc2c1cc1n(c2=O)Cc2cc3ccccc3nc2-1` [Camptothecin, reference compound], for which the “TOP1-mediated DNA Cleavage (REC)” value on human topoisomerase I is on record as 0.5. Further, the IC50 (in general, the point on the concentration scale where inhibition reaches its midpoint) in the series with RPMI8402 cells (human lymphoblast RPMI8402, 4 days of continuous drug exposure, MTT) was found to be 0.005 µM.

As to `CN(C)CCn1c(=O)c2ccccc2c2cnc3cc4c(cc3c21)OCO4` [Compound 3, 2,3-Methylenedioxy-5-[2-(N,N-dimethylamino)ethyl]-5H-dibenzo[c,h]1,6-naphthyridin-6-one, reference compound], the “TOP1-mediated DNA Cleavage (REC)” value on human topoisomerase I is 6. For the same compound, the figures for the IC50 in the series with RPMI8402 cells (Homo sapiens) and with CPT-K5 cells were 0.06 µM and 0.95 µM, respectively.

`CN(C)CCn1c(=O)c2cc([N+](=O)[O-])ccc2c2cnc3cc4c(cc3c21)OCO4` [Compound 4a, 8-Nitro-2,3-methylenedioxy-5-[2-(N,N-dimethylamino)ethyl]-5H-dibenzo[c,h][1,6]naphthyridin-6-one]: the melting point (commonly the temperature of the solid-liquid transition) was 219 to 220 °C. At human topoisomerase I, the “TOP1-mediated DNA Cleavage (REC)” value amounted to 0.2. Besides, the IC50 in the series on RPMI8402 cells (Homo sapiens) is 0.003 µM. Further, in the series on CPT-K5 cells, the IC50 came to 0.33 µM.

For `CN(C)CCn1c(=O)c2cc(N)ccc2c2cnc3cc4c(cc3c21)OCO4` [Compound 4b, 8-Amino-2,3-methylenedioxy-5-[2-(N,N-dimethylamino)ethyl]-5H-dibenzo[c,h][1,6]naphthyridin-6-one], the melting point was in the range of 245 to 246 °C. The “TOP1-mediated DNA Cleavage (REC)” value at human topoisomerase I was 8.0. The IC50 with RPMI8402 cells (Homo sapiens) was 0.08 µM. Also, the IC50 with CPT-K5 cells amounted to 0.38 µM.

Consider `CN(C)CCn1c(=O)c2ccc([N+](=O)[O-])cc2c2cnc3cc4c(cc3c21)OCO4` [Compound 5a, 9-Nitro-2,3-methylenedioxy-5-[2-(N,N-Dimethylamino)Ethyl]-5H-dibenzo[c,h][1,6]naphthyridin-6-one], for which the melting point is 258 to 259 °C. In addition, the “TOP1-mediated DNA Cleavage (REC)” value at human topoisomerase I is listed as 0.1. In addition, the IC50 with RPMI8402 cells (Homo sapiens) was 0.002 µM. Further, the IC50 with CPT-K5 cells came to 2.8 µM.

Compound `CN(C)CCn1c(=O)c2ccc(N)cc2c2cnc3cc4c(cc3c21)OCO4` [Compound 5b, 9-Amino-2,3-methylenedioxy-5-[2-(N,N-dimethylamino)ethyl]-5H-dibenzo[c,h][1,6]naphthyridin-6-one] returned a melting point of 300 to 301 °C. Besides, on human topoisomerase I, the “TOP1-mediated DNA Cleavage (REC)” value is recorded as 0.5. Besides, in the series on RPMI8402 cells (Homo sapiens), the IC50 was determined as 0.025 µM. In addition, the IC50 in the series on CPT-K5 cells was found to be 1 µM.

In the case of `CN(C)CCn1c(=O)c2cccc([N+](=O)[O-])c2c2cnc3cc4c(cc3c21)OCO4` [Compound 6a, 10-Nitro-2,3-methylenedioxy-5-[2-(N,N-dimethylamino)Ethyl]-5H-dibenzo[c,h][1,6]naphthyridin-6-one], the melting point was 189 to 190 °C. Also, on human topoisomerase I, the “TOP1-mediated DNA Cleavage (REC)” value is on record as 1000. Also, the IC50 with RPMI8402 cells (Homo sapiens) stood at 4.8 µM. The IC50 in the series on CPT-K5 cells is more than 10 µM.

`CN(C)CCn1c(=O)c2cccc(N)c2c2cnc3cc4c(cc3c21)OCO4` [Compound 6b, 10-Amino-2,3-methylenedioxy-5-[2-(N,N-dimethylamino)ethyl]-5H-dibenzo[c,h][1,6]naphthyridin-6-one] returned a melting point of 223 to 224 °C. Further, the “TOP1-mediated DNA Cleavage (REC)” value on human topoisomerase I is recorded as 15. In the series on RPMI8402 cells (Homo sapiens), the IC50 turned out to be 0.34 µM. Besides, the IC50 in the series on CPT-K5 cells was 3.2 µM.

Turning to `CC[C@@]1(O)C(=O)OCc2c1cc1n(c2=O)Cc2cc3c(CN(C)C)c(O)ccc3nc2-1` [Topotecan, reference compound], the “TOP1-mediated DNA Cleavage (REC)” value on human topoisomerase I was determined as 1. For the same compound, the IC50 with RPMI8402 cells (Homo sapiens) is 0.012 µM; with CPT-K5 cells, more than 50 µM.

As for `COc1cc([C@@H]2c3cc4c(cc3[C@@H](O[C@@H]3O[C@@H]5CO[C@@H](c6cccs6)O[C@H]5[C@H](O)[C@H]3O)[C@H]3COC(=O)[C@H]23)OCO4)cc(OC)c1O` [VM-26, reference compound], the “TOP1-mediated DNA Cleavage (REC)” value at human topoisomerase I is more than 1000. Moreover, the IC50 turned out to be 0.22 µM in the series on RPMI8402 cells (Homo sapiens) and 0.28 µM with CPT-K5 cells.

Values taken from patent publication US6989387B2, “Nitro and amino substituted topoisomerase agents” (Rutgers, The State University of New Jersey, priority 2002, dated 2006).
